Values belong to the molecule of their own block, whether it stands above or below them. Calls of active or inactive are those of the source. The calls are words filed in the database; no cut-off is given here.
Key:
[1] = target: pre-microRNA 136; experiment: Binding affinity to pre-miR-136 RNA (unknown origin) at 0.063 to 1 uM by SPR assay; assay type: nucleic-acid assay
[2] = Binding affinity to pre-miR-136 RNA hairpin mutant (unknown origin) at <0.5 uM by SPR assay
[3] = system: pre-microRNA 136; experiment: Binding affinity to pre-miR-136 RNA (unknown origin) at 63 nM by SPR assay; assay type: nucleic-acid assay
[4] = system: pre-microRNA 136; experiment: Binding affinity to internal loop site of pre-miR-136 RNA (unknown origin) at RNA to compound molar ratio of 1:0 by NMR titration assay; assay type: nucleic-acid assay
[5] = Binding affinity to pre-miR-136 RNA delta-internal loop mutant (unknown origin) at 0.063 to 1 uM by SPR assay
[6] = Binding affinity to pre-miR-136 RNA delta-C-bulge mutant (unknown origin) at <0.5 uM by SPR assay
[7] = Binding affinity to pre-miR-136 RNA delta-C-bulge mutant (unknown origin) at 0.063 to 1 uM by SPR assay
[8] = system: pre-microRNA 136; experiment: Binding affinity to pre-miR-136 RNA (unknown origin) assessed as reduction in human recombinant Dicer-mediated substrate cleavage incubated for 30 mins using 32P-labeled RNA by denaturing polyacrylamide gel electrophoresis method; assay type: nucleic-acid assay
[9] = system: pre-microRNA 136; experiment: Binding affinity to hairpin loop site of pre-miR-136 RNA (unknown origin) at RNA to compound molar ratio of 1:0 by NMR titration assay; assay type: nucleic-acid assay
[10] = system: pre-microRNA 136; experiment: Binding affinity to pre-miR-136 RNA (unknown origin) assessed as reduction in Km(app) for human recombinant Dicer-mediated substrate cleavage at 100 uM incubated for 30 mins using 32P-labeled RNA by denaturing polyacrylamide gel electrophoresis method; assay type: nucleic-acid assay
[11] = system: pre-microRNA 136; experiment: Binding affinity to pre-miR-136 RNA (unknown origin) assessed as reduction in Vmax(app) for human recombinant Dicer-mediated substrate cleavage at 100 uM incubated for 30 mins using 32P-labeled RNA by denaturing polyacrylamide gel electrophoresis method; assay type: nucleic-acid assay
[12] = Binding affinity to pre-miR-136 RNA hairpin mutant (unknown origin) at 0.063 to 1 uM by SPR assay
[13] = (§1) Binding affinity to pre-miR-136 RNA delta-internal loop mutant (unknown origin) assessed as reduction in human recombinant Dicer-mediated substrate cleavage by measuring cleavage efficiency at 200 uM incubated for 30 mins using 32P-labeled RNA by denaturing polyacrylamide gel electrophoresis method (reference value: 94.5 +/- 1.4%); set-up: scale not given: the % may be the effect or the level left
[14] = as §1, with “delta-C-bulge” for “delta-internal loop”, “89.1” for “94.5”, “2.3%)” for “1.4%)”; set-up: scale not given: the % may be the effect or the level left
[15] = system: pre-microRNA 136; experiment: Binding affinity to pre-miR-136 RNA (unknown origin) assessed as normalized equilibrium binding response (Req) value at 1 uM by SPR assay relative to control; assay type: nucleic-acid assay
[16] = Binding affinity to pre-miR-136 RNA delta-internal loop mutant (unknown origin) assessed as normalized equilibrium binding response (Req) value at 1 uM by SPR assay relative to control
[17] = system: pre-microRNA 136; experiment: Binding affinity to C-bulge site of pre-miR-136 RNA (unknown origin) at RNA to compound molar ratio of 1:0 by NMR titration assay; assay type: nucleic-acid assay
[18] = system: pre-microRNA 136; experiment: Binding affinity to pre-miR-136 RNA (unknown origin) assessed as reduction in initial velocity of human recombinant Dicer-mediated substrate cleavage at 100 uM incubated for 30 mins using 32P-labeled RNA by denaturing polyacrylamide gel electrophoresis method; assay type: nucleic-acid assay
[19] = as §1, with “hairpin” for “delta-internal loop”, “59.1” for “94.5”, “2.4%)” for “1.4%)”; set-up: scale not given: the % may be the effect or the level left
[20] = system: pre-microRNA 136; experiment: as §1, with “RNA” for “RNA delta-internal loop mutant”, “94.3” for “94.5”, “2.3%)” for “1.4%)”; assay type: nucleic-acid assay; set-up: scale not given: the % may be the effect or the level left
[21] = Binding affinity to pre-miR-136 RNA delta-C-bulge mutant (unknown origin) assessed as normalized equilibrium binding response (Req) value at 1 uM by SPR assay relative to control

Kd ([1]; read-out: Kd): 0.47 µM
Activity [2]: inactive
Activity [3]: Active
Activity [4]: inactive
Kd ([5]; read-out: Kd): 0.45 µM
Activity [6]: inactive
Kd ([7]; read-out: Kd): 3200 µM
Activity [8]: Dose-dependent effect
Activity [9]: inactive
Km [10]: 0.0279 µM
Vmax(app) [11]: 0.38 nM/min
Kd ([12]; read-out: Kd): 65000 µM
Activity [13]: 80.6%
Activity [14]: 80.5%
Activity [15]: 4.32 RU
Activity [16]: 4.73 RU
Activity [17]: Active
Activity [18]: Active
Activity [19]: 58.2%
Activity [20]: 71.9%
Activity [21]: 1.73 RU
Compound: NCCCNc1ccc2c(n1)nc(NCCCN)c1ccccc12

Kd [1]: Not Active
Kd [5]: Not Active
Kd [7]: Not Active
Kd [12]: Not Active
Compound: Nc1ccc2ccc(N)nc2n1

Source: ChEMBL document CHEMBL4392847, “Inhibition of pre-miRNA-136 processing by Dicer with small molecule BzDANP suggested the formation of ternary complex of pre-miR-136-BzDANP-Dicer” (Bioorg Med Chem, 2019)
